Structures can show the parent of a compound that is named as a salt.
Assay: RP, Phenomenex Kinetex C18, 100 × 2.1 mm, 1.7 µm, 40 °C, 0.5 mL/min, estimated dead time 0.44 min; A: water + 1 mM ammonium fluoride; B: acetonitrile; gradient (min/%B) 0/10 2/10 22/100 27/100 27.1/10
Conditions: stereoisomer not certain

Structure (SMILES)	LC retention time
CC(CCC(=O)O)C1CCC2C3C(O)CC4CC(O)CCC4(C)C3CC(=O)C12C (configuration not stated) [12-Ketochenodeoxycholic acid]	7.88 min
CCCCCCCCCCCCCCCCCCCC(=O)O [Arachidic acid]	20.3 min
CCCCCCCCCC(=O)O [Decanoic acid]	10.3 min
CC(CCC(=O)NCC(=O)O)C1CCC2C3C(O)CC4CC(O)CCC4(C)C3CC(O)C12C (configuration not stated) [Glycocholic acid]	6.87 min
CC(CCC(=O)NCC(=O)O)C1CCC2C3CCC4CC(O)CCC4(C)C3CC(O)C12C (configuration not stated) [Glycodeoxycholic acid]	7.98 min
CC(CCC(=O)NCC(=O)O)C1CCC2C3CC(O)C4CC(O)CCC4(C)C3CCC12C (configuration not stated) [Glycohyodeoxycholic Acid]	6.88 min
CC(CCC(=O)NCC(=O)O)C1CCC2C3CCC4CC(O)CCC4(C)C3CCC12C (configuration not stated) [Glycolithocholic Acid sodium salt]	9.22 min
CC(CCC(=O)O)C1CCC2C3CCC4CC(O)CCC4(C)C3CCC12C (configuration not stated) [Lithocholic acid]	13.1 min
CC(CC(=O)O)C1CCC2C3CCC4CC(O)CCC4(C)C3CC(O)C12C (configuration not stated) [Nor-Desoxycholic Acid]	9.58 min
CC(CCC(=O)NCCS(=O)(=O)O)C1CCC2C3C(O)CC4CC(O)CCC4(C)C3CC(O)C12C (configuration not stated) [Taurocholic acid]	6.97 min
CC(CCC(=O)NCCS(=O)(=O)O)C1CCC2C3CCC4CC(O)CCC4(C)C3CC(O)C12C (configuration not stated) [Taurodeoxycholic acid]	8.04 min
CC(CCC(=O)NCCS(=O)(=O)O)C1CCC2C3CCC4CC(O)CCC4(C)C3CCC12C (configuration not stated) [Taurolithocholic acid]	9.12 min

The next lines start with the values.

LC retention time	Structure (SMILES)
13.4 min	C[C@H](CCC(=O)O)[C@H]1CC[C@H]2[C@@H]3CC[C@@H]4CC(=O)CC[C@]4(C)[C@H]3CC[C@]12C [3-Oxo-5beta-cholanoic Acid]
12 min	CC(CCCC(C)C1CCC2C3C(O)CC4=CC(=O)CCC4(C)C3CCC12C)C(=O)O (configuration not stated) [7-Hydroxy-3-oxo-Cholest-4-en-26-oic Acid]
14.5 min	CC(CCCC(C)C1CCC2C3CCC4=CC(=O)C=CC4(C)C3CCC12C)C(=O)O [(25S)-d1,4-Dafachronic acid]
14.4 min	CC(CCCC(C)C1CCC2C3=CCC4CC(=O)C=CC4(C)C3CCC21C)C(=O)O [(25S)-d1,7-Dafachronic acid]
15.9 min	CC(CCCC(C)C1CCC2C3CCC4CC(=O)C=CC4(C)C3CCC12C)C(=O)O [(25S)-d1-Dafachronic acid]
14.3 min	CC(CCCC(C)C1CCC2=C3C=CC4=CC(=O)CCC4(C)C3CCC21C)C(=O)O [(25S)-d4,6,8(14)-Dafachronic acid]
15.9 min	CC(CCCC(C)C1CCC2=C3CCC4CC(=O)CCC4(C)C3CCC21C)C(=O)O [(25S)-d8(14)-Dafachronic acid]
7.14 min	CC(CCC(=O)O)C1CCC2C3C(=O)CC4CC(=O)CCC4(C)C3CC(=O)C12C (configuration not stated) [Dehydrocholic acid]
5.21 min	CC(CCC(=O)NCC(=O)O)C1CCC2C3C(=O)CC4CC(=O)CCC4(C)C3CC(=O)C12C (configuration not stated) [Glycodehydrocholic acid]
9.67 min	CC(CCC(=O)O)C1CCC2C3C(=O)CC4CC(O)CCC4(C)C3CCC12C (configuration not stated) [Nutriacholic Acid]

— the RepoRT retention time repository
